What was measured:
[1] = Phase I relative bioavailability and food effect study in healthy subjects; format: in vivo; conditions: 200 mg single dose
Method: In another Phase I, single dose, randomized, crossover relative bioavailability and food effect study in healthy subjects, the influence of a formulation change from the Phase I to Phase II tablet on belvarafenib exposure was evaluated. A total of 18 healthy subjects were enrolled in the study and received the following randomized treatments: one 150-mg and one 50-mg Phase I tablet in a fed state, two 100-mg Phase II tablets in a fed state, or two 100-mg Phase II tablets in a fasted state, with an 18-day washout between treatments. There was a positive effect of food on belvarafenib exposure in the fed state compared to the fasted state.

[2] = system: solid tumors harboring mutations in BRAF, KRAS, or NRAS genes; test: open-label Phase Ia dose-escalation study; format: in vivo, human; conditions: for Median DOR: updated
Method: For instance, a completed, open-label, Phase Ia, dose-escalation investigated several doses and schedules of belvarafenib in patients with solid tumors harboring mutations in BRAF, KRAS, or NRAS genes. Efficacy was analyzed for 67 of 72 subjects who had at least 1 post-baseline tumor assessment. […] Fifty-nine (88.06%) subjects developed an event (progression of disease or death), all of which were reported as progressive disease (PD). In addition, median progression-free survival was 11.53 weeks and the 95% confidence interval for the median was [7.12 weeks, 13.38 weeks). […] Median DOR was elevated to 30.18 weeks in 800 mg BID group and 23.99 weeks in total group including DOR of a subject which is 100.29 weeks.

[3] = target: T1, discoidin domain receptor tyrosine kinase 2 (DDR2) (Homo sapiens, UniProt Q16832); test: panel of 189 kinase assays; format: biochemical
T1 sequence (Q16832 22-855): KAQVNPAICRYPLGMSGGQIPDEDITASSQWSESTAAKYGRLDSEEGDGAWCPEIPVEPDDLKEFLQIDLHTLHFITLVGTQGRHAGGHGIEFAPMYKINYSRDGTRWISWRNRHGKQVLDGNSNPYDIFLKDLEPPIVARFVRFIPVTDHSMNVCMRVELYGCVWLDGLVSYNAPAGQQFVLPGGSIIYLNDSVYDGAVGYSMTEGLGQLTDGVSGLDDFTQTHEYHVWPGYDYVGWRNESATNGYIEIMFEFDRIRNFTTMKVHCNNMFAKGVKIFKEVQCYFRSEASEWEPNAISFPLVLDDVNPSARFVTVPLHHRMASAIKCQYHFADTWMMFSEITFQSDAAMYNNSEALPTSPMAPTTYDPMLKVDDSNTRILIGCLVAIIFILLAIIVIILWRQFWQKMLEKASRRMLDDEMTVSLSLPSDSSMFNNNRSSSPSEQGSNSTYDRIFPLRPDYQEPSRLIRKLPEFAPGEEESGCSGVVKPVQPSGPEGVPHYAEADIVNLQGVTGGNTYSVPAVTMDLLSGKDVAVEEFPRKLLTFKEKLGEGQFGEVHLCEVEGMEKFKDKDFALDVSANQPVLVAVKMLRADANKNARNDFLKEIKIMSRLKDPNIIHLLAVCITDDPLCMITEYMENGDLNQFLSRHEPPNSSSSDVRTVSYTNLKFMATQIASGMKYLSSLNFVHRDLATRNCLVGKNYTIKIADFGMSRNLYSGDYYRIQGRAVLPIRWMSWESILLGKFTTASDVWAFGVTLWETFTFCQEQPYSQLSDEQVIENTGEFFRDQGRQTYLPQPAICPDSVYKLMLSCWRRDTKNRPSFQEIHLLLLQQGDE

EPHA7 = EPHA7 (Homo sapiens, UniProt Q15375); test: panel of 189 kinase assays; format: biochemical
EPHA7, sequence (Q15375 28-998, species assumed): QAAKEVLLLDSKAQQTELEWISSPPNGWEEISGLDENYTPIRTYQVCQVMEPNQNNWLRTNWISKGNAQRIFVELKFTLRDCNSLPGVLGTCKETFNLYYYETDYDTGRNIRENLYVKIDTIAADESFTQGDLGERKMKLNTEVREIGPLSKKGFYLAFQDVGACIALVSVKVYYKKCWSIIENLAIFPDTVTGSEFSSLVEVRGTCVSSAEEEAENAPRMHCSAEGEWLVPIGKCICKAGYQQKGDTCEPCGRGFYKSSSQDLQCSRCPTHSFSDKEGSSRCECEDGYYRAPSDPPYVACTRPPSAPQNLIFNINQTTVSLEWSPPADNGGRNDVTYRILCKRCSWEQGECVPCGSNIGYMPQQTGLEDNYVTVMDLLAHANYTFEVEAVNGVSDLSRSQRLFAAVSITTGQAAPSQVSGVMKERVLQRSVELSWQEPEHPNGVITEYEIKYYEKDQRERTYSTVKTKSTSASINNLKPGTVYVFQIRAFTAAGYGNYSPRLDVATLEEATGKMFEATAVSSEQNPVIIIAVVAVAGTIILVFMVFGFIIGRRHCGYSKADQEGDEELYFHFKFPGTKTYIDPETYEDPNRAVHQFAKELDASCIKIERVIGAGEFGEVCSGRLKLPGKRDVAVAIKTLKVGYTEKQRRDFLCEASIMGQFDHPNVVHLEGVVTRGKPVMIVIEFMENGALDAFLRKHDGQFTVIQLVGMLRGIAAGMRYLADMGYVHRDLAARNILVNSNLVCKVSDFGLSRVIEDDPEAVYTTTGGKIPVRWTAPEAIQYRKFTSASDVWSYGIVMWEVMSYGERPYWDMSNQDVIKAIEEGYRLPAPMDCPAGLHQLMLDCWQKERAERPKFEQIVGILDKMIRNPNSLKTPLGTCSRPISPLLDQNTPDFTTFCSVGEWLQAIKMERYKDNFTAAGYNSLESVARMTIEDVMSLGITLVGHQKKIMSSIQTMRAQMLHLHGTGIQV

[4] = target: discoidin domain receptor tyrosine kinase 1 (DDR1) (Homo sapiens, UniProt Q08345); test: panel of 189 kinase assays; format: biochemical
discoidin domain receptor tyrosine kinase 1 (DDR1), sequence (Q08345 19-913, species assumed): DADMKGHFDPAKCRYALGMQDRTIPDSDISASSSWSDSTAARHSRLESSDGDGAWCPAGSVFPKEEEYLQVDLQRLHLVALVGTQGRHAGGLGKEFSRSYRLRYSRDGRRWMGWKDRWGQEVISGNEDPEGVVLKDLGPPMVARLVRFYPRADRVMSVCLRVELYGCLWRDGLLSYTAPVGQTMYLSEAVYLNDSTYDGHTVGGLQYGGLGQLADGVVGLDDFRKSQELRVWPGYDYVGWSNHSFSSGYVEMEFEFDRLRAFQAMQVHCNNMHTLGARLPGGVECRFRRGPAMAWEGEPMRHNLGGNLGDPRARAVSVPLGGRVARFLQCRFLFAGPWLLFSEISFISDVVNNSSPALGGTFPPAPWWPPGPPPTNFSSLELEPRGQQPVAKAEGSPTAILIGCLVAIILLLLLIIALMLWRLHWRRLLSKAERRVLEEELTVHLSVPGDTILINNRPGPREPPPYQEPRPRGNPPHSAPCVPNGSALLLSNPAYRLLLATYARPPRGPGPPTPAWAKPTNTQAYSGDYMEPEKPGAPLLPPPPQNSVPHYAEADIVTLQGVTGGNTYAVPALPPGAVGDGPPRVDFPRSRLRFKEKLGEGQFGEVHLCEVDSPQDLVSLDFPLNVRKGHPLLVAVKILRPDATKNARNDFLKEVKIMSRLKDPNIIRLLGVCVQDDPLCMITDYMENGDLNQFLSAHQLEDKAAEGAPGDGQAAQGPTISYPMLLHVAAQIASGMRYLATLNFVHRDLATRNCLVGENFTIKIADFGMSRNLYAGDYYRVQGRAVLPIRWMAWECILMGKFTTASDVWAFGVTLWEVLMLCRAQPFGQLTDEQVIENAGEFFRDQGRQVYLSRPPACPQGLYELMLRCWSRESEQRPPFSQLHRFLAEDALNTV

## Cc1ccc2c(Nc3cccc(Cl)c3F)nccc2c1NC(=O)c1csc2c(N)ncnc12 [Belvarafenib, 4-amino-N-(1-((3-chloro-2-fluorophenyl)amino)-6-methylisoquinolin-5-yl)thieno[3,2-d]pyrimidine-7-carboxamide]
[1]
  AUC0-inf increase, fed state compared to fasted state: ~2.8 fold
  Cmax increase, fed state compared to fasted state: approximately 2.2 fold
  adverse events: No serious adverse events, adverse events of special interest, or deaths were reported
[2]; 800 mg BID group
  Median DOR: 30.18 weeks
[2]; 67 evaluable subjects
  Best overall response rate (BORR): 8.96%
  objective response rate (ORR): 4.48%
  subjects who developed an event (progression of disease or death): 88.06%
[2]; BRAF-mutant melanoma subjects (13)
  BORR, subgroup re-analysis: 7.69%
[2]; in vivo
  median progression-free survival: 11.53 weeks
[2]; single subject
  DOR of a subject: 100.29 weeks
[2]; subjects treated with 100 mg QD dose level or above
  Disease control: 50.57%
[2]; total group
  Median DOR: 23.99 weeks
[2]; updated results
  BORR, updated results: 10.45%
  ORR, updated results: 4.48%
[3]
  inhibition at 1 µM: > 90%
EPHA7
  inhibition at 1 µM: > 90%
[4]
  inhibition at 1 µM: > 90%
